These are literature values, as cited in patent US5846980A, “N-(benzhydryloxyalkyl)-4-(carboxy/carbamoyl methyl)-piperidine derivatives as antidepressants” (Cooperation Pharmaceutique Francaise, priority 1994, dated 1998).

Series [1] relates to sleep induced by phenobarbital. The note with it: in vivo.
In series [2] the test system is motor activity of the animals. The following applies: in vivo.
The test system of a further series is stereotypic behaviors. The following applies: in vivo.
In series [3] the test system is immobility time of the mouse.
In series [4] the test system is ptosis and hypothermia induced by reserpine. The note with it: in vivo.

With “1-[2-(Diphenylmethoxy)ethyl]-4-(3-phenylpropenyl)piperazine”, the “sleep induced by phenobarbital” value in series [1] is listed as “decreases the sleep induced by phenobarbital”. Also, the “motor activity of the animals” value in series [2] is “increases the motor activity of the animals”. Further, the stereotypic behaviors result with stereotypic behaviors is recorded as “induces stereotypic behaviors”. Also, the “immobility time in the behavioral despair test” value in series [3] was “decreases the immobility time of the mouse”. Further, in series [4], the “antagonism of the hypothermia induced by reserpine” value is listed as “antagonizes neither the ptosis nor the hypothermia induced by reserpine” and the “antagonism of the ptosis induced by reserpine” value is on record as “antagonizes neither the ptosis nor the hypothermia induced by reserpine”.
In the case of `CN1Cc2c(N)cccc2C(c2ccccc2)C1` (stereo not drawn) [1,2,3,4-tetrahydro-2-methyl-4-phenyl-8-isoquinolinamine], the “antidepressant activity in human clinical studies” value with antidepressant activity is reported as “this effect is demonstrated in human clinical studies”.
Take `c1ccc2sc(C3(N4CCCCC4)CCCCC3)cc2c1` [1-[1-(2-Benzo[b]thiophenyl)cyclohexyl]piperidine]: the “inhibition of dopamine re-uptake” value with dopamine re-uptake was “inhibit dopamine and noradrenaline re-uptake”. Further, in the series with noradrenaline re-uptake, the “inhibition of noradrenaline re-uptake” value was “inhibit dopamine and noradrenaline re-uptake”.
